# Laboratory results taken from the NIST ThermoML archive (doi:10.1021/je101012n).
# ± gives the expanded uncertainty stated by the source.
# Assay: mn = molality of the nth substance listed, in mol/kg
# Settings: 101 kPa, Liquid, Alternating current cell with electrodes
smiles,measurement,setting,value
[Ca+2].[Cl-].[Cl-] [calcium chloride] + O,electrical conductivity,"278.15 K, m1 = 7.6e-05",0.001256 ± 5e-06 S/m
same,electrical conductivity,"278.15 K, m1 = 0.000755",0.01195 ± 5e-05 S/m
same,electrical conductivity,"278.15 K, m1 = 0.00755",0.1103 ± 0.0004 S/m
same,electrical conductivity,"278.15 K, m1 = 0.0755",0.9331 ± 0.0037 S/m
same,electrical conductivity,"278.15 K, m1 = 0.3773",4.179 ± 0.017 S/m
same,electrical conductivity,"283.15 K, m1 = 7.6e-05",0.001432 ± 6e-06 S/m
same,electrical conductivity,"283.15 K, m1 = 0.000755",0.01369 ± 6e-05 S/m
same,electrical conductivity,"283.15 K, m1 = 0.00755",0.1263 ± 0.0005 S/m
same,electrical conductivity,"283.15 K, m1 = 0.0755",1.062 ± 0.0042 S/m
same,electrical conductivity,"283.15 K, m1 = 0.3773",4.73 ± 0.019 S/m
same,electrical conductivity,"298.15 K, m1 = 7.6e-05",0.001998 ± 8e-06 S/m
same,electrical conductivity,"298.15 K, m1 = 0.000755",0.01945 ± 8e-05 S/m
same,electrical conductivity,"298.15 K, m1 = 0.00755",0.1792 ± 0.0007 S/m
same,electrical conductivity,"298.15 K, m1 = 0.0755",1.496 ± 0.006 S/m
same,electrical conductivity,"298.15 K, m1 = 0.3773",6.531 ± 0.026 S/m
same,electrical conductivity,"308.15 K, m1 = 7.6e-05",0.002384 ± 1e-05 S/m
same,electrical conductivity,"308.15 K, m1 = 0.000755",0.02351 ± 9e-05 S/m
same,electrical conductivity,"308.15 K, m1 = 0.00755",0.216 ± 0.0009 S/m
same,electrical conductivity,"308.15 K, m1 = 0.0755",1.793 ± 0.0072 S/m
same,electrical conductivity,"308.15 K, m1 = 0.3773",7.792 ± 0.031 S/m
same,electrical conductivity,"318.15 K, m1 = 7.6e-05",0.002814 ± 1.1e-05 S/m
same,electrical conductivity,"318.15 K, m1 = 0.000755",0.02784 ± 0.00011 S/m
same,electrical conductivity,"318.15 K, m1 = 0.00755",0.2547 ± 0.001 S/m
same,electrical conductivity,"318.15 K, m1 = 0.0755",2.11 ± 0.0084 S/m
same,electrical conductivity,"318.15 K, m1 = 0.3773",9.092 ± 0.036 S/m
same,electrical conductivity,"343.15 K, m1 = 7.6e-05",0.004073 ± 1.6e-05 S/m
same,electrical conductivity,"343.15 K, m1 = 0.000755",0.03992 ± 0.00016 S/m
same,electrical conductivity,"343.15 K, m1 = 0.00755",0.3636 ± 0.0015 S/m
same,electrical conductivity,"343.15 K, m1 = 0.0755",2.982 ± 0.012 S/m
same,electrical conductivity,"343.15 K, m1 = 0.3773",12.66 ± 0.051 S/m
same,electrical conductivity,"363.15 K, m1 = 7.6e-05",0.00517 ± 2e-05 S/m
same,electrical conductivity,"363.15 K, m1 = 0.000755",0.05001 ± 0.0002 S/m
same,electrical conductivity,"363.15 K, m1 = 0.00755",0.4547 ± 0.0018 S/m
same,electrical conductivity,"363.15 K, m1 = 0.0755",3.694 ± 0.015 S/m
same,electrical conductivity,"363.15 K, m1 = 0.3773",15.58 ± 0.062 S/m
O=S(=O)([O-])[O-].[Fe+2] [iron(II) sulfate] + O,electrical conductivity,"278.1 K, m1 = 0.00112",0.06212 ± 0.00025 S/m
same,electrical conductivity,"278.1 K, m1 = 0.00212",0.06435 ± 0.00026 S/m
same,electrical conductivity,"278.1 K, m1 = 0.01287",0.1183 ± 0.0005 S/m
same,electrical conductivity,"278.1 K, m1 = 0.1121",0.2469 ± 0.001 S/m
same,electrical conductivity,"278.1 K, m1 = 0.2576",1.238 ± 0.005 S/m
same,electrical conductivity,"283.1 K, m1 = 0.00112",0.06791 ± 0.00027 S/m
same,electrical conductivity,"283.1 K, m1 = 0.00212",0.07287 ± 0.00029 S/m
same,electrical conductivity,"283.1 K, m1 = 0.01287",0.1326 ± 0.0005 S/m
same,electrical conductivity,"283.1 K, m1 = 0.1121",0.269 ± 0.0011 S/m
same,electrical conductivity,"283.1 K, m1 = 0.2576",1.415 ± 0.0057 S/m
same,electrical conductivity,"298.15 K, m1 = 0.00112",0.08697 ± 0.00035 S/m
same,electrical conductivity,"298.15 K, m1 = 0.00212",0.09366 ± 0.00037 S/m
same,electrical conductivity,"298.15 K, m1 = 0.01287",0.1784 ± 0.0007 S/m
same,electrical conductivity,"298.15 K, m1 = 0.1121",0.3516 ± 0.0014 S/m
same,electrical conductivity,"298.15 K, m1 = 0.2576",1.98 ± 0.0079 S/m
same,electrical conductivity,"308.15 K, m1 = 0.00112",0.09771 ± 0.00039 S/m
same,electrical conductivity,"308.15 K, m1 = 0.00212",0.1063 ± 0.0004 S/m
same,electrical conductivity,"308.15 K, m1 = 0.01287",0.2092 ± 0.0008 S/m
same,electrical conductivity,"308.15 K, m1 = 0.1121",0.3913 ± 0.0016 S/m
same,electrical conductivity,"308.15 K, m1 = 0.2576",2.303 ± 0.0092 S/m
same,electrical conductivity,"318.15 K, m1 = 0.00112",0.1075 ± 0.0004 S/m
same,electrical conductivity,"318.15 K, m1 = 0.00212",0.1165 ± 0.0005 S/m
same,electrical conductivity,"318.15 K, m1 = 0.01287",0.2419 ± 0.001 S/m
same,electrical conductivity,"318.15 K, m1 = 0.1121",0.4714 ± 0.0019 S/m
same,electrical conductivity,"318.15 K, m1 = 0.2576",2.692 ± 0.011 S/m
same,electrical conductivity,"343.15 K, m1 = 0.00112",0.1235 ± 0.0005 S/m
same,electrical conductivity,"343.15 K, m1 = 0.00212",0.1409 ± 0.0006 S/m
same,electrical conductivity,"343.15 K, m1 = 0.01287",0.3214 ± 0.0013 S/m
same,electrical conductivity,"343.15 K, m1 = 0.2576",3.631 ± 0.015 S/m
same,electrical conductivity,"363.15 K, m1 = 0.00112",0.1274 ± 0.0005 S/m
same,electrical conductivity,"363.15 K, m1 = 0.00212",0.1543 ± 0.0006 S/m
same,electrical conductivity,"363.15 K, m1 = 0.01287",0.3988 ± 0.0016 S/m
same,electrical conductivity,"363.15 K, m1 = 0.2576",4.11 ± 0.016 S/m
[F-].[Na+] [sodium fluoride] + O,electrical conductivity,"278.15 K, m1 = 8.8e-05",0.0005802 ± 2.3e-06 S/m
same,electrical conductivity,"278.15 K, m1 = 0.00092",0.006016 ± 2.4e-05 S/m
same,electrical conductivity,"278.15 K, m1 = 0.00878",0.05214 ± 0.00021 S/m
same,electrical conductivity,"278.15 K, m1 = 0.0906",0.4638 ± 0.0019 S/m
same,electrical conductivity,"278.15 K, m1 = 0.4176",1.917 ± 0.0077 S/m
same,electrical conductivity,"278.15 K, m1 = 0.8404",3.432 ± 0.014 S/m
same,electrical conductivity,"283.15 K, m1 = 8.8e-05",0.0006955 ± 2.8e-06 S/m
same,electrical conductivity,"283.15 K, m1 = 0.00092",0.006909 ± 2.8e-05 S/m
same,electrical conductivity,"283.15 K, m1 = 0.00878",0.05994 ± 0.00024 S/m
same,electrical conductivity,"283.15 K, m1 = 0.0906",0.5338 ± 0.0021 S/m
same,electrical conductivity,"283.15 K, m1 = 0.4176",2.201 ± 0.0088 S/m
same,electrical conductivity,"283.15 K, m1 = 0.8404",3.915 ± 0.016 S/m
same,electrical conductivity,"298.15 K, m1 = 8.8e-05",0.0009523 ± 3.8e-06 S/m
same,electrical conductivity,"298.15 K, m1 = 0.00092",0.009683 ± 3.9e-05 S/m
same,electrical conductivity,"298.15 K, m1 = 0.00878",0.08551 ± 0.00034 S/m
same,electrical conductivity,"298.15 K, m1 = 0.0906",0.7669 ± 0.0031 S/m
same,electrical conductivity,"298.15 K, m1 = 0.4176",3.151 ± 0.013 S/m
same,electrical conductivity,"298.15 K, m1 = 0.8404",5.579 ± 0.022 S/m
same,electrical conductivity,"308.15 K, m1 = 8.8e-05",0.00122 ± 5e-06 S/m
same,electrical conductivity,"308.15 K, m1 = 0.00092",0.01152 ± 5e-05 S/m
same,electrical conductivity,"308.15 K, m1 = 0.00878",0.1038 ± 0.0004 S/m
same,electrical conductivity,"308.15 K, m1 = 0.0906",0.9341 ± 0.0037 S/m
same,electrical conductivity,"308.15 K, m1 = 0.4176",3.824 ± 0.015 S/m
same,electrical conductivity,"308.15 K, m1 = 0.8404",6.791 ± 0.027 S/m
same,electrical conductivity,"318.15 K, m1 = 8.8e-05",0.001433 ± 6e-06 S/m
same,electrical conductivity,"318.15 K, m1 = 0.00092",0.01398 ± 6e-05 S/m
same,electrical conductivity,"318.15 K, m1 = 0.00878",0.1234 ± 0.0005 S/m
same,electrical conductivity,"318.15 K, m1 = 0.0906",1.112 ± 0.0044 S/m
same,electrical conductivity,"318.15 K, m1 = 0.4176",4.547 ± 0.018 S/m
same,electrical conductivity,"318.15 K, m1 = 0.8404",7.478 ± 0.03 S/m
same,electrical conductivity,"343.15 K, m1 = 8.8e-05",0.002014 ± 8e-06 S/m
same,electrical conductivity,"343.15 K, m1 = 0.00092",0.02009 ± 8e-05 S/m
same,electrical conductivity,"343.15 K, m1 = 0.00878",0.1798 ± 0.0007 S/m
same,electrical conductivity,"343.15 K, m1 = 0.0906",1.621 ± 0.0065 S/m
same,electrical conductivity,"343.15 K, m1 = 0.4176",6.57 ± 0.026 S/m
same,electrical conductivity,"343.15 K, m1 = 0.8404",11.37 ± 0.045 S/m
same,electrical conductivity,"363.15 K, m1 = 8.8e-05",0.00252 ± 1e-05 S/m
same,electrical conductivity,"363.15 K, m1 = 0.00092",0.02474 ± 0.0001 S/m
same,electrical conductivity,"363.15 K, m1 = 0.00878",0.227 ± 0.0009 S/m
same,electrical conductivity,"363.15 K, m1 = 0.0906",2.042 ± 0.0082 S/m
same,electrical conductivity,"363.15 K, m1 = 0.4176",8.137 ± 0.033 S/m
same,electrical conductivity,"363.15 K, m1 = 0.8404",14.54 ± 0.058 S/m
O=S(=O)([O-])[O-].O=S(=O)([O-])[O-].O=S(=O)([O-])[O-].[Fe+3].[Fe+3] [ferric sulfate] + O,electrical conductivity,"343.15 K, m1 = 0.000104",0.659 ± 0.0026 S/m
same,electrical conductivity,"343.15 K, m1 = 0.000829",0.681 ± 0.0027 S/m
same,electrical conductivity,"363.15 K, m1 = 0.000104",0.6888 ± 0.0028 S/m
same,electrical conductivity,"363.15 K, m1 = 0.000829",0.718 ± 0.0029 S/m
